From patent US20170008888A1 (KYORIN PHARMACEUTICAL CO., LTD., priority 2014, published 2017)
Like-named read-outs stand apart in the source and are kept apart here. Each block holds one compound with its values, some of them ahead of it.

How the values were obtained:
[1] = molecular target: T1, BRD2 (Homo sapiens, UniProt P25440); assay: Bromodomain binding assay: BRD2
T1 construct: read out by qPCR of the phage DNA
Experimental: (§1) T7 phage strains displaying bromodomains were grown in parallel in 24-well blocks in an E. coli host derived from the BL21 strain. E. coli were grown to log-phase and infected with T7 phage from a frozen stock (multiplicity of infection=0.4) and incubated with shaking at 32° C. until lysis (90-150 minutes). The lysates were centrifuged (5,000×g) and filtered (0.2 μm) to remove cell debris. […] The liganded beads were blocked with excess biotin and washed with blocking buffer (SeaBlock (Pierce), 1% BSA, 0.05 Tween 20, 1 mM DTT) to remove unbound ligand and to reduce non-specific phage binding. […] Test compounds (T62 and 46) were prepared as 1000× stocks in 100% DMSO and subsequently diluted 1:10 in monoethylene glycol (MEG) to create stocks at 100× the screening concentration (resulting stock solution is 10% DMSO/90% MEG). The compounds were then diluted directly into the assays such that the final concentration of DMSO and MEG were 0.1% and 0.9%, respectively. All reactions were performed in polystyrene 96-well plates in a final volume of 0.135 ml. […] The bromodomain concentration in the eluates was measured by qPCR. Compounds were assayed for binding activity against a panel of 40 bromodomain-containing proteins.

[2] = molecular target: T2, BRD4 (Homo sapiens, UniProt O60885); assay: Bromodomain binding assay: BRD4
T2 construct: read out by qPCR of the phage DNA
Experimental: as §1

[3] = molecular target: T3, PCAF (Homo sapiens, UniProt Q92831); assay: Bromodomain binding assay: PCAF
T3 construct: made in house; host or cells: E. coli host derived from the BL21 strain (T7 phage lysate)
T3 sequence (Q92831 723-827 limits assumed): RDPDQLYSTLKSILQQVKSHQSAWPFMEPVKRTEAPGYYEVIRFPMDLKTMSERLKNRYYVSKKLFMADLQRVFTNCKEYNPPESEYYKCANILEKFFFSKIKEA
Experimental: as §1

[4] = molecular target: T4, TRIM33 (Homo sapiens, UniProt Q9UPN9); assay: Bromodomain binding assay: TRIM33
T4 construct: made in house; host or cells: E. coli host derived from the BL21 strain (T7 phage lysate)
T4 sequence (Q9UPN9 957-1080 limits assumed): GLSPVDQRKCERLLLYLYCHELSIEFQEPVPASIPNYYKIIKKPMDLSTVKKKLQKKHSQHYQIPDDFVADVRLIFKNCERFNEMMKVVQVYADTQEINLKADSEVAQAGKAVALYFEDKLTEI
Experimental: as §1

[5] = molecular target: T5, WDR9 (Homo sapiens, UniProt Q9NSI6); assay: Bromodomain binding assay: WDR9
T5 construct: made in house; host or cells: E. coli host derived from the BL21 strain (T7 phage lysate)
T5 sequence (Q9NSI6 1313-1418 limits assumed): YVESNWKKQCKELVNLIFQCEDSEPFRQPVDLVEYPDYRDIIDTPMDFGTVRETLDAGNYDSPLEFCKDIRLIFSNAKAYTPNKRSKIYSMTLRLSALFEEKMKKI
Experimental: as §1

[6] = test system: TLR2 signaling in primary human umbilical vein endothelial cells; assay: Cytokine response to TLR2 agonism (Pam3CysK4) in primary HUVEC (ELISA); assay type: cell-based; details: for IL-8: 5 μM inhibitor
Text: It has been reported in the literature that that ERK5 mediates TLR2-dependent inflammatory signaling in several cell types including human umbilical vein endothelial cells (HUVEC). See Wilhelmsen et al., J Biol Chem. 2012; 287:26478-94. Wilhelmsen et al. further reported that MEK1 negatively regulates TLR2 signaling in HUVECs, with pharmacological inhibition of MEK1 augmenting (IL-6, G-CSF, GM-CSF) or not changing (IL-8) pro-inflammatory cytokine release in response to TLR2 stimulation.
In this example, the following commercially available inhibitors were tested:
The results were compared with test compound 61.
Pooled primary human umbilical vein endothelial cells (HUVEC) were obtained from Lonza (Allendale, N.J.) and maintained in either complete EGM-2 defined media (Lonza) or Medium 200 supplemented with Low Serum Growth Supplement (Life Technologies, Grand Island, N.Y.). Cells at low passage (<5) were seeded at 4e5 cells/ml and allowed to adhere overnight at 37° C. in a humidified atmosphere at 5% CO2. Cells were pre-treated with test compounds for 1 h prior to TLR2 or TLR4 stimulation. To test for the effects of TLR2 agonism, the TLR2 agonist peptide Pam3CysK4 (Santa Cruz Biotechnology, Dallas, Tex.) was used at 10 μg/ml. PHC-SKKK (Enzo Life Sciences, Farmingdale, N.Y.) served as the negative control peptide. To test for the effects of TLR4 agonism, LPS from E. coli 0111:B4 (EMD Millipore, Billerica, Mass.) was used at 100 ng/ml. Cells were incubated for 22 hr, after which the supernatant was collected and analyzed for cytokine concentrations by ELISA (Life Technologies). Absorbance at 450 nm was read using the Wallac 1420 Victor^2 multilabel microplate reader (Perkin Elmer, Waltham, Mass.).

[7] = test system: primary human keratinocytes; assay: IL-17A-stimulated cytokine response by primary human keratinocytes; assay type: cell-based; details: Keratinocyte, 200 ng/ml IL-17A, 48 h
Experimental: Primary human keratinocytes were obtained from Life Technologies (Grand Island, N.Y.) and maintained in growth supplemented Defined Keratinocyte-SFM Medium (Life Technologies). Cells were seeded at 2.5e4 cells/ml onto collagen-coated plates and incubated at 37° C. in a humidified atmosphere at 5% CO2 until the cells reached confluence. Cells were pre-treated with test compounds (10 μM down by ⅕ in a 4-point serial dilution series) for 1 h at 37° C. in a humidified atmosphere at 5% CO2. DMSO at a final concentration of 0.1% served as the non-inhibited control. Cells were then stimulated with 200 ng/ml human recombinant IL-17A (eBioscience, San Diego, Calif.) for 48 h. Supernatant was collected and analyzed for cytokine concentrations using the Human Inflammatory Magnetic 5-Plex Panel from Life Technologies according to the manufacturer's instructions. Magnetic beads were measured on the Bio-Plex MAGPIX multiplex reader instrument using the accompanying xPONENT 4.2 acquisition software (Bio-Rad Laboratories, Hercules, Calif.). Data were analyzed via the Bio-Plex Manager software v6.1 (Bio-Rad Laboratories).

[8] = molecular target: T6, TAF1 (Homo sapiens, UniProt P21675); assay: Bromodomain binding assay: TAF1
T6 construct: made in house; host or cells: E. coli host derived from the BL21 strain (T7 phage lysate)
T6 sequence (P21675 1519-1628 limits assumed): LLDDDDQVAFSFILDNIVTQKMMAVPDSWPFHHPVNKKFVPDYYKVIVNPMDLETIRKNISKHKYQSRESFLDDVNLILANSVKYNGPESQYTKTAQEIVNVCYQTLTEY
Experimental: as §1

[9] = molecular target: T7, TAF1L (Homo sapiens, UniProt Q8IZX4); assay: Bromodomain binding assay: TAF1L
T7 construct: made in house; host or cells: E. coli host derived from the BL21 strain (T7 phage lysate)
T7 sequence (Q8IZX4 1517-1626 limits assumed): as the sequence (P21675 1519-1628 limits assumed) above, with V46M, M51V, V102I, L107I counted along it
Experimental: as §1

T1 sequence (P25440 whole entry): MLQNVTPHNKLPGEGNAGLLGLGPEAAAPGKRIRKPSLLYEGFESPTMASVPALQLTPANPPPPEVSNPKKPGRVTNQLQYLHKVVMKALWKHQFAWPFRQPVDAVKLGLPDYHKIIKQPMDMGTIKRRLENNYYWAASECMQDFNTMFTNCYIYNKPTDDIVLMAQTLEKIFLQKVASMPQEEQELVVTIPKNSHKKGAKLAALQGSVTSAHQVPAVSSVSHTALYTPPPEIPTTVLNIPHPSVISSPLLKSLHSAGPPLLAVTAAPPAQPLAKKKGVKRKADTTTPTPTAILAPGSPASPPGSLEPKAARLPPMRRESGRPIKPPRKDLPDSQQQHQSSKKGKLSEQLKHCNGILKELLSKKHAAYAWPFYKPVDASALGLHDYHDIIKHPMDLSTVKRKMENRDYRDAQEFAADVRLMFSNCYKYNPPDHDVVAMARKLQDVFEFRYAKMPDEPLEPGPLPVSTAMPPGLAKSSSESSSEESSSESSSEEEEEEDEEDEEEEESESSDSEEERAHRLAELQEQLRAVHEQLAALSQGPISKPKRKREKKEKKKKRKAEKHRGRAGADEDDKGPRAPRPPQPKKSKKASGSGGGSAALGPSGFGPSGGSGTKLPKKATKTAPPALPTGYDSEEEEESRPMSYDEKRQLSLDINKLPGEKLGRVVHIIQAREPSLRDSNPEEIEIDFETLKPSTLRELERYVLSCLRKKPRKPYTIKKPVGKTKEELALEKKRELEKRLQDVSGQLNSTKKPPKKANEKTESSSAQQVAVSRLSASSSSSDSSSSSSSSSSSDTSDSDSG

Kd [1]: 55 nM | Kd [2]: 41 nM | Kd [3]: > 20000 nM | Kd [4]: > 20000 nM | Kd [5]: > 20000 nM
SMILES: CCOc1cc(C(=O)N2CCC(N3CCCC3)CC2)ccc1Nc1cc2c(cn1)N(C)C(=O)c1ccccc1N2C [Compound 46, 3-(2-Ethoxy-4-(4-(pyrrolidin-1-yl)piperidine-1-carbonyl)phenylamino)-5,11-dimethyl-5H-benzo[e]pyrido[3,4-b][1,4]diazepin-10(11H)-one]

SMILES: CCOc1cc(C(=O)N2CCC(N3CCN(C)CC3)CC2)ccc1Nc1cc2c(cn1)N(C)C(=O)c1ccccc1N2C [Compound 61]
IL-8 ([6]; +10 μg/ml PHC-SKKK (negative control peptide), 22 hr): 0 ± 17 pg/mL | IL-8 ([6]; +10 μg/ml Pam3CysK4, 22 hr): 133 ± 9 pg/mL | IL-8 response to TLR2 (Pam3CysK4) stimulation, in words ([6]; summary of Table 22): reduced the IL-8 response

EC50 ([7]; read-out: Inhibition EC50 (μM), GM-CSF): 2.18 µM | EC50 ([7]; read-out: Inhibition EC50 (μM), IL-1β): 0.5 µM | EC50 ([7]; read-out: Inhibition EC50 (μM), IL-6): 0.35 µM | EC50 ([7]; read-out: Inhibition EC50 (μM), IL-8): 0.46 µM | EC50 ([7]; read-out: Inhibition EC50 (μM), TNF-α): 1 µM
SMILES: CCOc1cc(C(=O)N2CC[C@@H](N(C)C)C2)ccc1Nc1cc2c(cn1)N(C)C(=O)c1ccccc1N2C [Compound 115]

Kd [1]: 93 nM | Kd [2]: 97 nM | Kd [3]: > 20000 nM | Kd ([8]; read-out: Kd (nM) TAF1): 12000 nM | Kd ([8]; read-out: Kd for binding to TAF1): > 20000 nM | Kd ([9]; read-out: Kd (nM) TAF1L): 19000 nM | Kd ([9]; read-out: Kd for binding to TAF1L): > 20000 nM | Kd [4]: > 20000 nM | Kd [5]: > 20000 nM
SMILES: CCOc1cc(C(=O)N[C@H]2CC[C@H](O)CC2)ccc1Nc1cc2c(cn1)N(C)C(=O)c1ccccc1N2C [Compound T62]
